{"source": "patent US20230061456A1", "about": "“METHODS AND COMPOSITIONS FOR GENERATING TYPE 1 VESTIBULAR HAIR CELLS” (Decibel Therapeutics, Inc., priority 2020, published 2023)", "key": {"[1]": {"tested_on": "SPP1 (a Type I HC marker) positive cells in cultured utricles", "assay": "SPP1 induction by vitamin A in cultured embryonic and adult utricles", "format": "cell-based, mouse", "details": "0.1 μM", "experimental": "To further explore these differences of the effect of the retinoic acid pathway on embryonic and adult hair cells, we compared the effects of 0.1 μM vitamin A on cultured utricles from embryonic and adult animals."}, "[2]": {"tested_on": "hair cells of embryonic utricles from E15.5 CD1 mice", "assay": "scRNAseq of cultured embryonic utricles with vitamin A", "format": "cell-based, mouse", "details": "E15.5 CD1 utricles; 0.1 μM; 4 days in culture", "experimental": "To evaluate the potential for this pathway to modulate type I hair cell fate, we dissected and cultured embryonic utricles from E15.5 CD1 mice in the presence or absence of 0.1 μM vitamin A (retinoic acid precursor). After 4 days in culture the cells were dissociated, and single cells were captured for scRNAseq. Downstream analysis of the scRNAseq data was performed and representative transcripts used to define type I hair cells (Kcna10 and Lpgat1) and type II hair cells (Mgst3 and DIk2) were selected from the data."}}}
{"substance": "vitamin A", "values": [{"measurement": "number of SPP1-positive cells, embryonic tissue", "setting": "[1]", "result": "dramatically increased"}, {"measurement": "expression of transcripts typically associated with type I hair cells (Kcna10, Lpgat1)", "setting": "[2]", "result": "increased expression"}, {"measurement": "expression of transcripts typically associated with type II hair cells (Mgst3, Dlk2)", "setting": "[2]", "result": "decreased expression"}]}
